Each structure is given as a SMILES string. Read-outs that look alike come from different tables or passages of the source.

Data set [1] can be described thus: In vitro metabolic stability assay in microsomes. It counts as in vitro ADME. Particulars: for half-life at 1 µM: read-out: Degradation half-life; for microsomal CLint at 1 µM: 0.4 mg/mL. As for the experimental part:
In vitro microsomal stability assay was performed in duplicate in a 96-well microtiter plate, using a single-point experiment design ([42]). Test compounds (1 µM) were incubated individually in human (pool of 50, mixed gender), rat (pool of 711, male Sprague Dawley), and mouse (pool of 1,634, male CD1) liver microsomes (Xenotech, Kansas, USA) to a final protein concentration of 0.4 mg/mL, suspended in 0.1 M phosphate buffer (pH 7.4). Incubations were started by the addition of NADPH (1 mM) as a cofactor and shaken for 30 min at 37°C. The reactions were quenched by the addition of 300 µL of ice-cold acetonitrile containing an internal standard (carbamazepine, 0.0236 µg/mL) and centrifuged. The supernatant was transferred to a fresh 96-well plate and analyzed by liquid chromatography-tandem mass spectrometry (LC-MS/MS) (Agilent Rapid Resolution HPLC, AB SCIEX 4500 MS). The relative loss of the parent compound over time was monitored, and plots (concentration vs time) were prepared per compound to determine the first-order rate constant for compound depletion. This was in turn used to calculate half-life, in vitro intrinsic clearance (Clint), and in vivo hepatic extraction ratio ([43]).

The test system of data set [2] is 3D7 strain of P. falciparum. The experiment in a line: Host cell-mediated drug degradation: antiplasmodial activity of uRBC supernatants. The format is cell-based, Plasmodium falciparum. Particulars: for IC50: Plasmodium falciparum, 3D7, 0.16 h, 500 nM drug, 3D7, SYBR Green I, median ± SEM (AQ mean, 95% CI), read-out: IC50 of supernatants harvested at 0.16 h; for Fold changes (24 h/0.16 h): 3D7, ratio of IC50 at 24 h to IC50 at 0.16 h. As for the experimental part: Each well of 96-well plates was filled with 125 µL drug (1000 nM) and 125 µL uninfected red blood cells (uRBC), which were mixed to obtain a final drug concentration of 500 nM and 2.5% or 1.0% hematocrit. The plates were incubated at 37°C in the standard gas mixture. After each time point (10 min, 6 h, and 24 h), supernatants were carefully harvested and stored at −80°C until use. […] Next, supernatants were diluted in a complete medium in six different dilutions and were aliquoted in new plates. The antimalarial activity of these supernatants and freshly dissolved drugs was determined in an asynchronous parasite culture of P. falciparum (3D7, D10, and W2 strains) for 72 h using the same method described above, and parasite viability was assessed by the pLDH ([38]) and SYBR Green I ([41]) methods. Only the experiments where the IC50 values of the supernatants harvested at 10 min were the same as those of the respective fresh drugs were considered for determining equivalent drug concentration. […] Decay in drug concentration was estimated by using the normalized slope values calculated from linear regression fits using the slope values of a standard curve as reference. Three independent experiments were performed using two replicates.
Figure S5: Data associated to Figure 3 in the main text of the manuscript. Panel A: Representative response-concentration curves of the antiplasmodial activity of supernatant-derived uRBC (2.5% hematocrit) harvested at indicated times (0.16, 6, and 24 h). Drug activity on parasite viability was determined 72 h after parasite incubation (3D7 strain, asynchronous). Values were subtracted from control (without treatment), transformed, and normalized to calculate nonlinear fit. Parasite viability was determined by SYBR Green I. Values are mean and error bars are the standard deviation of a single experiment, each concentration in duplicate. […] Footnotes: ^[a] Parasite viability was determined by SYBR Green I. ^[b^] Parasite viability was determined by pLDH readout. Values are median ± SEM of three independent experiments, each concentration in duplicate. ^[c^] […] These values are expressed as mean and 95% confidence interval (CI) of one experiment, each concentration in duplicate. […] Unpaired two-tailed t-test at 95% CI: *p <0.05; **p <0.01.

Data set [3] has as its system quiescent ART-resistant parasites (F32-ART). In words: Quiescent-stage survival assay (QSA). Particulars: threshold of activity 6 days. The format is cell-based, Plasmodium falciparum. As for the experimental part:
The QSA was performed as previously described to determine the drug activity on quiescent ART-resistant parasites ([11]). F32-ART culture parasites were synchronized at the ring stage and adjusted to 3% parasitemia and 2% hematocrit. […] At the end of treatment, parasites from each of the three conditions were washed with RPMI-1640 medium and replaced in new wells in a drug-free culture medium with 10% human serum. Parasitemia was determined daily by thin blood smears until the cultures reached their initial parasitemia (3%), which was defined as the recrudescence day ([11]). The recrudescence capacity of parasites exposed in conditions A and B was compared to determine whether the drug was active on quiescent parasites. Condition C was designed to check that the concentration at which the drug was tested acted on proliferating parasites. If no parasite recrudescence was observed, the experiment was stopped.

Data set [4] deals with Asynchronous NF54 strain of P. falciparum. The experiment in a line: Speed of drug activity (pLDH). The format is cell-based, Plasmodium falciparum. Particulars: for IC50: Plasmodium falciparum, NF54, asynchronous, mean (95% CI). As for the experimental part: Each well of 96-well plates was filled with 100 µL drug and 100 µL culture containing asynchronous P. falciparum (NF54 strain) parasites, which were mixed to obtain a final parasitemia of 1.0% to 1.5% and 1.0% hematocrit. The plates were incubated for 24, 48, and 72 h at 37°C with a standard gas mixture. […] Parasite viability was measured using the pLDH method, and IC50 values were calculated as described above. Three independent experiments were performed using two technical replicates.
Figure S3: Speed of antiparasitic activity of hybrids (1) and (2) against CQ-sensitive NF54 strain of P. falciparum. Panel A: Representative response-concentration curves. Panel B: A table summarizing the results. Footnotes for table: ^[a] Parasite viability was accessed at each indicated time (24, 48, or 72 h) after addition of drugs. Values are the mean and 95% confidence interval of one experiment using each concentration of compounds in duplicate. Parasite viability was determined by parasite lactate dehydrogenase (pLDH) assay. DHA = dihydroartemisinin; ATO = atovaquone.

For `C[C@H]1[C@H](OC(=O)CCC(=O)O)O[C@@H]2O[C@@]3(C)CC[C@H]4[C@H](C)CC[C@@H]1[C@@]24OO3` [Artesunate, artesunate, reference compound], the half-life at 1 µM in data set [1] (both sexes, pH 7.4, human liver microsomes) was 7 min; in data set [1] (male, CD1, pH 7.4, mouse liver microsomes), 4 min; in data set [1] (male, Sprague Dawley, pH 7.4, rat liver microsomes) it was 4 min. In addition, the microsomal CLint at 1 µM came out at 250 µL/min/mg in data set [1] (both sexes, human liver microsomes, pH 7.4); 429 µL/min/mg in data set [1] (male, CD1, mouse liver microsomes, pH 7.4); 442 µL/min/mg in data set [1] (male, Sprague Dawley, rat liver microsomes, pH 7.4). Besides, the “Drug remaining after 30 min” value in data set [1] (human liver microsomes) was 5%; in data set [1] (mouse liver microsomes), 0.6%; in data set [1] (rat liver microsomes), 0.5%.
`CCN(CC)Cc1cc(Nc2ccnc3cc(Cl)ccc23)ccc1O` [AQ, amodiaquine, reference compound]: in data set [2] (uRBC 1.0% hematocrit), the IC50 was found to be 3.9 nM and the “Fold changes (24 h/0.16 h)” value was determined as 0.76. Also, in data set [2] (uRBC 2.5% hematocrit), the IC50 was determined as 3.6 nM and the “Fold changes (24 h/0.16 h)” value was 0.91.
Turning to `O=C1C(O)=C([C@H]2CC[C@H](c3ccc(Cl)cc3)CC2)C(=O)c2ccccc21` [ATO, atovaquone, reference compound], the “delay of recrudescence in the QSA versus DHA alone” value in data set [3] is “up to 10 days”. Besides, the IC50 was above 600 nM in data set [4] (viability at 24 h, read-out: IC50, 24 h); 5.3 nM in data set [4] (viability at 48 h, read-out: IC50, 48 h); 0.78 nM in data set [4] (viability at 72 h, read-out: IC50, 72 h). For the same compound, the “Conclusion (speed of antiparasitic activity)” value in data set [4] (from IC50 at 24, 48, 72 h) is on record as “Slow-acting”.

Values taken from paper PMC11232401, “Characterization of antimalarial activity of artemisinin-based hybrid drugs” (Antimicrobial Agents and Chemotherapy, 2024).
